Where a name gives a salt, the structure may show the parent alone. Read-outs that look alike come from different tables or passages of the source.
Experiments:
human AT1 receptor = biological target: T1, human AT1 receptor (Homo sapiens, UniProt P30556); assay: Binding assay using human AT1 receptor-expressing CHO-K1 cell membrane fraction ([125I]-angiotensin II); conditions: 22.5 pM [125I]-angiotensin II, 9 μg AT1 membrane, 1 hr room temperature; read-out: AT1 receptor binding inhibitory action (IC50 (nM))
T1 construct: expressed in transfected cells; host or cells: CHO-K1
T1 sequence (P30556 1-359): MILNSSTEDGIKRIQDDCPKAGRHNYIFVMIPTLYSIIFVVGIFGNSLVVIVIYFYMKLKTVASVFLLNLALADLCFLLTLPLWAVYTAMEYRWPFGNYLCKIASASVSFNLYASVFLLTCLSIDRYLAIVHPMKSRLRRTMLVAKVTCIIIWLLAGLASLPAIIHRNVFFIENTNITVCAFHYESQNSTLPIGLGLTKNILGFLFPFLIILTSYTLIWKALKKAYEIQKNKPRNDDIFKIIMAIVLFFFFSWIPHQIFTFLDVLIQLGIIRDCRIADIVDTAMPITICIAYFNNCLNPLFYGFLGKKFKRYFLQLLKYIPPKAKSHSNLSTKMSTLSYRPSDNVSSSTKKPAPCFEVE
Protocol: The membrane fraction for human AT1 receptor binding assay was prepared as follows. CHO-K1 cell capable of stable expression of human AT1 receptor was cultured, recovered, suspended in homogenize buffer (10 mM NaHCO3 (pH 7.4), 5 mM EDTA, 1×Complete EDTA free) [manufactured by Roche, Switzerland], and homogenized. The homogenate was centrifuged at low-speed (900×g, 10 min, 4° C.), and the supernatant was recovered and ultracentrifuged (90,000×g, 1 hr, 4° C.). The supernatant was discarded, and the pellets were resuspended in resuspension buffer (50 mM Tris (pH 7.4), 1 mM EDTA, 1×Complete EDTA free).
The binding assay was performed in the presence of 22.5 pM [^125I]-angiotensin II [manufactured by PerkinElmer, USA], 9 μg of AT1 membrane and test compound in 100 μL (total reaction volume) of reaction buffer (50 mM Tris (pH 7.4), 10 mM MgCl2 supplemented or not supplemented with 0.3 mg/mL fatty acid-free bovine serum albumin [manufactured by Wako Pure Chemical Industries, Ltd., Japan]). The reaction mixture was incubated in 96 well polypropylene plate for 1 hr at room temperature, and the reaction was quenched by rapid filtration (96 well cell harvester) through a GF/C filter treated with wash buffer (50 mM Tris (pH 7.4)). Subsequently, the filter was washed 5 times with 0.3 mL of ice-cooled wash buffer. The filter was air-dried, and [^125I]-angiotensin II binding radioactivity was assayed with Top Count scintillation counter. Total binding was measured in the presence of 1% DMSO and nonspecific binding was measured in the presence of 1 μM CV-11974. The binding data was analyzed by GraphPad Prism program and the IC50 value (compound concentration showing 50% of the maximum value of inhibition percent) of the test compound was calculated.

PPARγ = biological target: T2, PPARγ (Homo sapiens, UniProt P37231); assay: Evaluation of PPARγ activating action (luciferase reporter in PPARγ:RXRα:4ERPP/CHO-K1 cells); type: cell-based; conditions: CHO-K1, 24 h, read-out: PPARγ activating action (activation % (10^−6 M))
T2 construct: expressed in transfected cells; host or cells: CHO-K1
T2 sequence (P37231 1-477 isoform P37231-2): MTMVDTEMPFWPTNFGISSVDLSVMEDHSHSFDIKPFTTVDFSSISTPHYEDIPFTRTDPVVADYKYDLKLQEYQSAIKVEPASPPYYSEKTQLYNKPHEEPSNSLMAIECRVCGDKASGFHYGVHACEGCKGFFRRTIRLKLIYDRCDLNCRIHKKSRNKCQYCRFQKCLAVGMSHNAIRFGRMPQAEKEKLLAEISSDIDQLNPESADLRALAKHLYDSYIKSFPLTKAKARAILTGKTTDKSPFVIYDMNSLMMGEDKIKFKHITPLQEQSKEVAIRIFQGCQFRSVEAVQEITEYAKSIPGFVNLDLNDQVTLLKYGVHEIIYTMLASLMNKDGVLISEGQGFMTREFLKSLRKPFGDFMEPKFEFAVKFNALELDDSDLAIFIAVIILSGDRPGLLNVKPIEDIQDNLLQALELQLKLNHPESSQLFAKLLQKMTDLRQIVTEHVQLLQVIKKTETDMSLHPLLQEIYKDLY
T2 sequence (P19793 1-462 partner): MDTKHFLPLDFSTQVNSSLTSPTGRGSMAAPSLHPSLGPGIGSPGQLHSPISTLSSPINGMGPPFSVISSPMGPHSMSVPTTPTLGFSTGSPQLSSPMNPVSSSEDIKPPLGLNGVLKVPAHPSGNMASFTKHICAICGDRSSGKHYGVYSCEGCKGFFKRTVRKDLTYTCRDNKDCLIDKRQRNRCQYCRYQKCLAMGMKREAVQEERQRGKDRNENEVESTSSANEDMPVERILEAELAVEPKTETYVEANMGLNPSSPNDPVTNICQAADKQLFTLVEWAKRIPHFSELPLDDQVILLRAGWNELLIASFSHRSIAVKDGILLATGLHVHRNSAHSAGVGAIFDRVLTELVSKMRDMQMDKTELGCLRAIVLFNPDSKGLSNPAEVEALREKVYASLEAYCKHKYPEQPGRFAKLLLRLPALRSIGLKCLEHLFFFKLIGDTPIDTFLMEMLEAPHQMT
Protocol: PPARγ:RXRα:4ERPP/CHO-K1 cells obtained in the following Reference Example 5 were cultured in F12 medium [manufactured by INVITROGEN, USA] containing 10% fetal bovine serum [manufactured by MOREGATE, Australia], seeded in a 96-well half area white plate [manufactured by Corning Coster Corporation, USA] at the density of 5×10^3 cells/well and cultured in a CO2 gas incubator at 37° C. overnight.
Then the medium was removed from the 96-well half area white plate, 45 μl of Ham's F12 medium containing 0.1% fatty acid-free bovine serum albumin (BSA) and 5 μl of test compound were added, and the cells were cultured in a CO2 gas incubator at 37° C. for 1 day. The medium was removed and 20 μl of PicaGene 7.5 [manufactured by TOYO INK MFG. CO., LTD.,.Japan] diluted 2-fold with HBSS (HANKS' BALANCED SALT SOLUTION) [manufactured by BIO WHITTAKER, USA] was added. After stirring, the luciferase activity was determined using 1420 ARVO Multilabel Counter [manufactured by PerkinElmer, USA].
The percent (%) was calculated from the luciferase activity of each test compound when the luciferase activity of the control compound (compound X: 5-[3-(4-{[2-(2-furyl)-5-methyl-1,3-oxazol-4-yl]methoxy}-3-methoxyphenyl)propyl]-1,3-oxazolidine-2,4-dione) (1 μM) was 100% and that of the test compound non-administration group was 0%.
A CHO-K1 cell cultured in a 150 cm^2 cell culture flask [manufactured by Corning Costar Corporation, USA] containing Ham's F12 medium [manufactured by INVITROGEN, USA] supplemented with 10% fetal bovine serum [manufactured by INVITROGEN, USA] was scraped by treating with 0.5 g/L trypsin-0.2 g/L EDTA (ethylenediaminetetraacetic acid) [manufactured by Life Technologies, Inc., USA], and then the cell was washed with PBS (Phosphate-buffered saline) [manufactured by INVITROGEN, USA], centrifuged (1000 rpm, 5 minutes) and suspended in PBS. Subsequently, DNA was introduced into the cell under the conditions shown below using GENE PULSER [manufactured by Bio-Rad Laboratories, USA].
Namely, to a cuvette having a 0.4 cm gap were added 8×10^6 cells and 10 μg of plasmid pVgRXR2-hPPARγ obtained in Reference Example 4 and 10 μg of reporter plasmid pGL3-4ERPP-TK neo obtained in Reference Example 3, which was subjected to electroporation at the voltage of 0.25 kV under the capacitance of 960 μF. Subsequently, the cell was transferred into a F12 medium containing 10% fetal bovine serum and cultured for 24 hours, and then the cell was scraped again and centrifuged, and then suspended in Ham's F12 medium containing 10% fetal bovine serum supplemented with 500 μg/ml of Geneticin [manufactured by INVITROGEN, USA] and 250 μg/ml of Zeocin [manufactured by INVITROGEN, USA]. The obtained suspension was diluted to the density of 10^4 cells/ml and inoculated in a 96-well plate [manufactured by Corning Costar Corporation, USA], which was cultured in a CO2 gas incubator at 37° C., whereby obtaining a Geneticin- and Zeocin-resistant transformant.
Subsequently, after the transformant cell line thus obtained was cultured in a 24-well plate [manufactured by Corning Costar Corporation, USA], a cell line in which the luciferase was expressed and induced, i.e., PPARγ:RXRα:4ERPP/CHO-K1 cell was selected by the addition of 10 μM pioglitazone hydrochloride.

[1] = test compound 10^−6 M, luciferase activity relative to control compound X (1 μM) = 100%, non-administration group = 0%

SMILES	IC50 (human AT1 receptor)	activation at 1 µM (PPARγ; [1])	activation at 1 µM (PPARγ)
C=COc1ccc(-n2c(C)nc(CCC)c(Cc3ccc(-c4ccccc4-c4noc(=O)[nH]4)cc3F)c2=O)cc1 [Example 408, 5-{[3-fluoro-2′-(5-oxo-4,5-dihydro-1,2,4-oxadiazol-3-yl)biphenyl-4-yl]methyl}-2-methyl-6-propyl-3-[4-(vinyloxy)phenyl]pyrimidin-4(3H)-one]	1.4 nM	48.7%	
CCCc1nc(C)n(-c2ccc(OC3CCC3)c(F)c2)c(=O)c1Cc1ccc(-c2ccccc2-c2noc(=O)[nH]2)cc1 [Example 318, 3-[4-(cyclobutyloxy)-3-fluorophenyl]-2-methyl-5-{[2′-(5-oxo-4,5-dihydro-1,2,4-oxadiazol-3-yl)biphenyl-4-yl]methyl}-6-propylpyrimidin-4(3H)-one]	1.8 nM	19.2%	
CCCc1nc(CC)n(-c2ccc(OC3CCOCC3)nc2)c(=O)c1Cc1ccc(-c2ccccc2-c2noc(=O)[nH]2)cc1 [Example 406, 2-ethyl-5-{[2′-(5-oxo-4,5-dihydro-1,2,4-oxadiazol-3-yl)biphenyl-4-yl]methyl}-6-propyl-3-[6-(tetrahydro-2H-pyran-4-yloxy)pyridin-3-yl]pyrimidin-4(3H)-one]	1.5 nM	41.9%	
CCCCc1nc(OC)n(-c2ccccc2)c(=O)c1Cc1ccc(-c2ccccc2-c2noc(=O)[nH]2)cc1 [Example 108, 6-butyl-2-methoxy-5-{[2′-(5-oxo-4,5-dihydro-1,2,4-oxadiazol-3-yl)biphenyl-4-yl]methyl}-3-phenylpyrimidin-4(3H)-one]	2.2 nM	31.7%	
CCCc1nc(CC)c(C(O)C(C)C)c(=O)n1Cc1ccc(-c2ccccc2-c2noc(O)n2)cc1 (centres unmarked) [Example 473, 6-ethyl-5-(1-hydroxy-2-methylpropyl)-3-{[2′-(5-oxo-4,5-dihydro-1,2,4-oxadiazol-3-yl)biphenyl-4-yl]methyl}-2-propylpyrimidin-4(3H)-one potassium salt]	3.6 nM		15.7%
CCCCc1nc(C)n(Cc2cccs2)c(=O)c1Cc1ccc(-c2ccccc2-c2noc(=O)[nH]2)cc1 [Example 32, 6-butyl-2-methyl-5-{[2′-(5-oxo-4,5-dihydro-1,2,4-oxadiazol-3-yl)biphenyl-4-yl]methyl}-3-(2-thienylmethyl)pyrimidin-4(3H)-5 one]	1.3 nM	55.6%	

Continued by falling IC50 (human AT1 receptor), values first:

IC50 (human AT1 receptor)	activation at 1 µM (PPARγ; [1])	SMILES	activation at 1 µM (PPARγ)
2.7 nM	35.9%	CCCc1nc(CC)c(-c2ccc(OCC3CC3)nc2)c(=O)n1Cc1ccc(-c2ccccc2-c2noc(=O)[nH]2)cc1 [Example 500, 5-[6-(cyclopropylmethoxy)pyridin-3-yl]-6-ethyl-3-{[2′-(5-oxo-4,5-dihydro-1,2,4-oxadiazol-3-yl)biphenyl-4-yl]methyl}-2-propylpyrimidin-4(3H)-one]	
2.3 nM	24.4%	CCCCc1nc(C2CC2)c(-c2ccc(OC(C)(C)CO)cc2)c(=O)n1Cc1ccc(-c2ccccc2-c2noc(O)n2)cc1 [Example 510, 2-butyl-6-cyclopropyl-5-[4-(2-hydroxy-1,1-dimethylethoxy)phenyl]-3-{[2′-(5-oxo-4,5-dihydro-1,2,4-oxadiazol-3-yl)biphenyl-4-yl]methyl}pyrimidin-4(3H)-one]	
1.8 nM	25.3%	CCCc1nc(CC)n(-c2cccc(C(C)(C)O)c2)c(=O)c1Cc1ccc(-c2ccccc2-c2noc(=O)[nH]2)cc1 [Example 365, 2-ethyl-3-[3-(1-hydroxy-1-methylethyl)phenyl]-5-{[2′-(5-oxo-4,5-dihydro-1,2,4-oxadiazol-3-yl)biphenyl-4-yl]methyl}-6-propylpyrimidin-4(3H)-one]	
1.7 nM	16%	CCCc1nc(CC)n(-c2ccc(OC(COCC)COCC)cc2)c(=O)c1Cc1ccc(-c2ccccc2-c2noc(=O)[nH]2)cc1 [Example 395, 3-{4-[2-ethoxy-1-(ethoxymethyl)ethoxy]phenyl}-2-ethyl-5-{[2′-(5-oxo-4,5-dihydro-1,2,4-oxadiazol-3-yl)biphenyl-4-yl]methyl}-6-propylpyrimidin-4(3H)-one]	
